{
  "source": "patent US20200262877A1",
  "about": "“ION CHANNEL-BINDING PEPTIDES AND METHODS OF USE THEREOF” (priority 2017, published 2020)",
  "key": {"panel of 20 ion channels": {"system": "panel of 20 ion channels", "assay_type": "cell-based", "settings": "potassium channels of the panel; 0.2 or 20 μM; FIG. 2", "experimental": "This example describes a method for assaying ion channel activity in cells.\nPeptides were screened in duplicate at final concentrations of 20 μM and 200 nM, as determined by amino acid analysis, and diluted into HEPES buffered physiological saline (HBPS). HEK293 or CHO cells from the American Type Culture Collection (ATCC) were transfected with the appropriate ion channel before use. HEK293 cells were grown in Dulbecco's Modified Eagle Medium/Nutrient Mixture F-12, and CHO cells were cultured in Ham's F-12 media. All cultures were supplemented with 10% fetal bovine serum, 100 U/ml penicillin G, 100 μg/ml streptomycin sulfate, and the appropriate selection antibiotics. Prior to use, cells were washed twice with Hank's Balanced Salt Solution, and treated with Accutase cell detachment solution (Sigma-Aldrich). Cells were then washed. Peptides and controls were incubated with cells for at least five minutes.\nPercent inhibition was defined as: (1-(Ipeptide/Icontrol))×100%).\nPercent values were calculated using the following formula: % activation=(IPeptide/Icontrol)×100%, where IPeptide is the current produced by co-application a peptide with agonist, and Icontrol refers to the current produced by stimulation in control. Control used for each ion channel is the reference compound matched to a particular channel, as illustrated in TABLE 10 below."}, "Kv1.3": {"target": "T1, Kv1.3 (Homo sapiens, UniProt P22001)", "T1 construct": "host or cells: HEK293 or CHO", "T1 sequence (P22001 whole entry)": "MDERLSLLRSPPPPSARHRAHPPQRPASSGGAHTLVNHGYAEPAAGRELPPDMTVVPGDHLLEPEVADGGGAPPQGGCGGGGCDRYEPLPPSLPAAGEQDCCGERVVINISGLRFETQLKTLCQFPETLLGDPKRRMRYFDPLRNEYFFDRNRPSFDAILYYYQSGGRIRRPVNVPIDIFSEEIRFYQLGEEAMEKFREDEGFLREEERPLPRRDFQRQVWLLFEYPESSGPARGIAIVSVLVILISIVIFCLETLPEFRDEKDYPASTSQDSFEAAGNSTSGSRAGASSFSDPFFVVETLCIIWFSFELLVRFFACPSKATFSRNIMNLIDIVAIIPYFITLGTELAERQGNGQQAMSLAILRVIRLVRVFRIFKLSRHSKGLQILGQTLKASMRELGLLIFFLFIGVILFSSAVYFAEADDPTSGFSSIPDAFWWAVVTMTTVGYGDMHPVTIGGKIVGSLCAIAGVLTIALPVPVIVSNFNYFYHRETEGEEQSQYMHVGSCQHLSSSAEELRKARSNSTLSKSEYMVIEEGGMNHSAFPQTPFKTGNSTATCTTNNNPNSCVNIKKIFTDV", "assay": "cell-based", "assay_type": "cell-based", "settings": "Kv1.3, percentage of control, 100% = no change, read-out: Ion channel activity (ion channel inhibition)", "how_it_was_run": "(§1)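 Transfected HEK293 or CHO cells were exposed for at least 5 min to peptides at 200 nM and 20 μM final, tested in duplicate, in HEPES-buffered physiological saline. Activation was taken as peptide-plus-agonist current over control current ×100, and inhibition as 1 minus that ratio ×100. Each channel's control was its own reference compound.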"}, "Kv1.1": {"target": "T2, Kv1.1 (Homo sapiens, UniProt Q09470)", "T2 construct": "host or cells: HEK293 or CHO", "T2 sequence (Q09470 whole entry)": "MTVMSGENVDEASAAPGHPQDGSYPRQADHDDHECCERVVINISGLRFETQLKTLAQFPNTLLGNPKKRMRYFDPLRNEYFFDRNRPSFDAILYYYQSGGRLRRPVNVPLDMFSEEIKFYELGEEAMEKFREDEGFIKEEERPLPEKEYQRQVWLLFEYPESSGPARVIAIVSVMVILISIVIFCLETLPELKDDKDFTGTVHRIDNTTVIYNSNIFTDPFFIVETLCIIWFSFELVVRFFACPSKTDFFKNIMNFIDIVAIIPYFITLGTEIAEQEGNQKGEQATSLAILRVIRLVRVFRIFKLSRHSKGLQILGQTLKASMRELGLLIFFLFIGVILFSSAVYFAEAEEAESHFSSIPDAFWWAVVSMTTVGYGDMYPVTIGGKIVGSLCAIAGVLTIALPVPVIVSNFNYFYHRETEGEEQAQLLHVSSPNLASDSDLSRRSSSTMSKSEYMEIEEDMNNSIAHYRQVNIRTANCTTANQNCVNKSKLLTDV", "assay": "cell-based", "assay_type": "cell-based", "settings": "Kv1.1; peptide at 20 μM; percentage of control, 100% = no change; read-out: Ion channel activity (ion channel inhibition)", "how_it_was_run": "as §1"}, "[1]": {"target": "Nav1.5 cardiac sodium channel (human SCN5A gene) (Homo sapiens, UniProt Q14524)", "sequence (Q14524 whole entry)": "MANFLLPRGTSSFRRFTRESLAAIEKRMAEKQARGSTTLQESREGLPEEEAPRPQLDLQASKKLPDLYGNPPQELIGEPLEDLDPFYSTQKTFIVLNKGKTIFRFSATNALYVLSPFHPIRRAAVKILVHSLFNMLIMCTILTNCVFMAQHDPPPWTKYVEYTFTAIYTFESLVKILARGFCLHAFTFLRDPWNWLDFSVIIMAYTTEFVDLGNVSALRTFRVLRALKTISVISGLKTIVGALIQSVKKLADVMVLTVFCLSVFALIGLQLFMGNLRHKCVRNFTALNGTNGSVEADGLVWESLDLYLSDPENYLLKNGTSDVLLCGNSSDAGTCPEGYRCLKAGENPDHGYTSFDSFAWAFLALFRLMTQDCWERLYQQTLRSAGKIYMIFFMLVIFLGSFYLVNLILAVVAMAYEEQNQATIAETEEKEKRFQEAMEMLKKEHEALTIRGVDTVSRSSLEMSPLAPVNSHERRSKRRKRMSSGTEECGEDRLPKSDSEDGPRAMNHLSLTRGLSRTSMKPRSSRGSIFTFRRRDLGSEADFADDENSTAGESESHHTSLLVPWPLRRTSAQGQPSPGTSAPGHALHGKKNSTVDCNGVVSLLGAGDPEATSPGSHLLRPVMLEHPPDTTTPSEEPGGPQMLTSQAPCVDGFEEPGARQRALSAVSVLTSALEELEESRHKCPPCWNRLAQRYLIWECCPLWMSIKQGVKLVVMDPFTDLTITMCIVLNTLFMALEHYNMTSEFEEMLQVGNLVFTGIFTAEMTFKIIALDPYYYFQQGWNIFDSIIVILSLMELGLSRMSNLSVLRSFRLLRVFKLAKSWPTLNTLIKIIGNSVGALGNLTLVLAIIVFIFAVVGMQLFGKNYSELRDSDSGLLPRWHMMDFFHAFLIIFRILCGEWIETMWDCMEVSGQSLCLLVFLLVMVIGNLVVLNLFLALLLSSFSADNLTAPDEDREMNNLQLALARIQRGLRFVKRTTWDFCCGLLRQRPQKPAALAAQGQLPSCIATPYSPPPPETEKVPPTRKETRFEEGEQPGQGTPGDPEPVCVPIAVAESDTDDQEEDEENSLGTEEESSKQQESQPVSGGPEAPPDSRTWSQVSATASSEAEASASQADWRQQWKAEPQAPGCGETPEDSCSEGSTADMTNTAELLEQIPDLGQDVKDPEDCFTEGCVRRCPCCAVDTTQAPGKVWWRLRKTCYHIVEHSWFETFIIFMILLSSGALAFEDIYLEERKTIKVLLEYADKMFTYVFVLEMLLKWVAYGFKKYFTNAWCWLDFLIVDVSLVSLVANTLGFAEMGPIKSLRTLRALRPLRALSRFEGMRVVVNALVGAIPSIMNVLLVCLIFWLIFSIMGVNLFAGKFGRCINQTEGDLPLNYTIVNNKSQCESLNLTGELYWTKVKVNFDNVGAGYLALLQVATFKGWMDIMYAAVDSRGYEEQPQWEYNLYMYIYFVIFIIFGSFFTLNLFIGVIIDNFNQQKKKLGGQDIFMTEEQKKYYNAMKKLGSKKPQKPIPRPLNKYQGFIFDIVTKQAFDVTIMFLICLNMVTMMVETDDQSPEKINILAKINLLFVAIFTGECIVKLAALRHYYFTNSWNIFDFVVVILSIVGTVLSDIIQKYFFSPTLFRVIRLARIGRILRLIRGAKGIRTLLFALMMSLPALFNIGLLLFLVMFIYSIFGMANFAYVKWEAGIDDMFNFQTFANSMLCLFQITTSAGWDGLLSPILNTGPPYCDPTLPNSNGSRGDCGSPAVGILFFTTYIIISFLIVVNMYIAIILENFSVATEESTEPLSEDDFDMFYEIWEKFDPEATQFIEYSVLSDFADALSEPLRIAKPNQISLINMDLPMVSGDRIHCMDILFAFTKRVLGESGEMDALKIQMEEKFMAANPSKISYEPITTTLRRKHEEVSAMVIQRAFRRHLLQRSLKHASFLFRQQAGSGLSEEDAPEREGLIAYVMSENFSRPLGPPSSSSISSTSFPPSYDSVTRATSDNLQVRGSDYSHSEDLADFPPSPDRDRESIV", "assay": "in vitro"}},
  "note": "pIC50: −log10 of the molar value. Where a SMILES comes first, the peptide text is derived from it. Bridges are numbered along the chain shown (N, C = ends).",
  "data": [
    {"compound": "CC[C@H](C)[C@H](NC(=O)[C@H](CCCNC(=N)N)NC(=O)[C@@H](NC(=O)[C@H](CO)NC(=O)CN)C(C)C)C(=O)N1CCC[C@H]1C(=O)N[C@H](C(=O)N[C@@H](CO)C(=O)N[C@H]1CSSC[C@@H]2NC(=O)[C@H](CCCCN)NC(=O)CNC(=O)[C@H](Cc3ccccc3)NC(=O)[C@H](CCCNC(=N)N)NC(=O)[C@H](CCSC)NC(=O)CNC(=O)[C@H](C)NC(=O)[C@H](CC(=O)O)NC(=O)[C@H](CCCCN)NC(=O)[C@@H]3CSSC[C@@H](C(=O)N[C@H](C(=O)N4CCC[C@H]4C(=O)N[C@@H](CCCCN)C(=O)O)[C@@H](C)O)NC(=O)[C@H](CC(=O)O)NC(=O)[C@H](CSSC[C@H](NC(=O)[C@H](CCC(N)=O)NC(=O)CNC(=O)[C@H](CO)NC(=O)[C@H](Cc4c[nH]cn4)NC(=O)[C@H](CCCCN)NC1=O)C(=O)N[C@@H](CC(C)C)C(=O)N[C@@H](CCCCN)C(=O)N1CCC[C@H]1C(=O)N3)NC(=O)[C@H](CCCCN)NC(=O)CNC(=O)[C@H](CC(N)=O)NC(=O)[C@H](CCSC)NC2=O)C(C)C", "note": "[SEQ ID NO: 6] (H-GSVRIPVSCKHSGQCLKPCKDAGMRFGKCMNGKCDCTPK-OH; disulfide 9-29, 15-34, 19-36)", "values": [
      {"measurement": "Activity on potassium channels", "setting": "panel of 20 ion channels", "result": "active on a subset of potassium channels"},
      {"measurement": "activity at 0.2 µM", "setting": "Kv1.3; peptide at 0.2 μM", "result": "< 80", "unit": "%"},
      {"measurement": "activity at 20 µM", "setting": "Kv1.3; peptide at 20 μM", "result": "< 50", "unit": "%"},
      {"measurement": "activity at 20 µM", "setting": "Kv1.1", "result": "< 50", "unit": "%"},
      {"measurement": "pIC50", "setting": "[1]", "result": "< 6.00"}
    ]}
  ]
}
